# Measurements as given in patent US9610365B2, “Anthracenyl-tetralactam macrocycles and their use in detecting a target saccharide” (UNIVERSITY OF BRISTOL, priority 2012, dated 2017).
# Experiments:
# [1] = 1H NMR titration, binding to carbohydrate substrate; details: 1H NMR titration in D2O at 298 K
# Experimental: (§1) The binding of receptor compound 3 to carbohydrate substrates, in aqueous solution, was studied initially by ^1H NMR titrations at 298 K. The saccharides used as test substrates are shown in FIG. 7.
# (§2) Titrations were performed on a Varian™ 500 MHz spectrometer. Solutions of reducing carbohydrates were prepared in D2O and kept overnight at room temperature before the titration experiments, in order to ensure equilibration of anomers. In a typical titration, aliquots of carbohydrate solution were added to receptor solution (DSS as internal standard) and the ^1H NMR spectra were recorded. Variations in chemical shifts were entered into a specifically written non-linear least squares curve-fitting program implemented within Excel™. Assuming 1:1 stoichiometry, the program calculates Ka and the limiting change in chemical shift Δδ. The assumption is supported by the generally good fits between observed and calculated data.
# [2] = as above; details: 1H NMR titration in D2O at 298 K; ~0 = too small for analysis
# Experimental: as §1, §2
# [3] = as above; details: 1H NMR titration in D2O at 298 K; ~0 = too small for analysis; remark: listed apart in the source
# Experimental: as §1, §2
# [4] = Isothermal titration calorimetry (ITC); format: binding; details: ITC titration in water at 298 K
# Experimental: (§3) Experiments were performed on a VP-ITC™ (Microcal, Inc., Northampton, Mass.) at 298 K. Stock solutions of carbohydrates were made up in pure HPLC grade water and allowed to equilibrate overnight. Receptor solutions were made up in pure water. All the solutions were degassed and thermostated using the ThermoVac™ accessory before titration. The sample cell volume was 1.4226 mL. Each titration experiment included 25-35 successive injections.
# [5] = 1H NMR titration, binding to carbohydrate substrate; details: 1H NMR titration in D2O at 298 K; remark: listed apart in the source
# Experimental: as §1, §2
# [6] = Fluorescence emission properties of the receptor; format: physicochemical
# Experimental: Fluorescence titrations were carried out at 298 K on a PerkinElmer™ LS45 spectrometer in PBS (phosphate buffered saline) buffer solution (pH 7.1, 100 mM). The carbohydrate stock solutions were prepared by dissolving the carbohydrates in buffer containing the receptor at the concentration to be used in the titration (thus avoiding dilution of the receptor during the experiment). The solutions were kept overnight at room temperature before the titration experiments, in order to ensure equilibration of anomers. The wavelength to be used for fluorescence excitation was determined by measurement of the UV-visible spectrum of receptor 3 in the presence of carbohydrates. 394 nm was chosen, because at this wavelength the absorption of receptor was almost independent of carbohydrate concentration. In a typical titration, aliquots of carbohydrate-receptor solution were added to receptor solution (2.5 mL) in a quartz cuvette (3 mL, 10 mm pathway). […]
# It can be seen that on excitation with UV light at 394 nm, 3 emitted in the blue-violet region, peaking at 423 nm, with a quantum yield of 2.4% (20 μm aqueous solution). […] Binding constants obtained by this method were in good agreement with those measured by NMR titrations (see Table 1). Moreover these fluorescence characteristics are promising for practical glucose sensing, especially when compared to biphenyl-based synthetic lectins. […]
# Fluorescence titration = format: binding; details: for Ka: fluorescence titration in phosphate buffer solution (pH 7.1, 0.1 M) at 298 K
# Experimental: Fluorescence titrations were carried out at 298 K on a PerkinElmer™ LS45 spectrometer in PBS (phosphate buffered saline) buffer solution (pH 7.1, 100 mM). The carbohydrate stock solutions were prepared by dissolving the carbohydrates in buffer containing the receptor at the concentration to be used in the titration (thus avoiding dilution of the receptor during the experiment). The solutions were kept overnight at room temperature before the titration experiments, in order to ensure equilibration of anomers. The wavelength to be used for fluorescence excitation was determined by measurement of the UV-visible spectrum of receptor 3 in the presence of carbohydrates. 394 nm was chosen, because at this wavelength the absorption of receptor was almost independent of carbohydrate concentration. In a typical titration, aliquots of carbohydrate-receptor solution were added to receptor solution (2.5 mL) in a quartz cuvette (3 mL, 10 mm pathway). The solution was stirred for 2 minutes and left to stand for another 1 minute before the emission spectrum was recorded. Binding constants were calculated using non-linear curve fitting assuming 1:1 binding stoichiometry, employing both Kaleidagraph™ and a customised Excel™ spreadsheet. Errors were estimated at <5%.
# [7] = 1H NMR titration, binding to carbohydrate substrate; details: 1H NMR titration in D2O at 298 K; remark: listed apart in the source
# Experimental: as §1, §2
# [8] = as above
# Experimental: as §1, §2
# [9] = as above; details: 1H NMR titration in D2O at 298 K; ~0 = too small for analysis; remark: listed apart in the source
# Experimental: as §1, §2
# [10] = as above; details: 1H NMR titration in D2O at 298 K; remark: listed apart in the source
# Experimental: as §1, §2
# [11] = as above; details: 1H NMR titration in D2O at 298 K; remark: listed apart in the source
# Experimental: as §1, §2
# [12] = as above; details: 1H NMR titration in D2O at 298 K; remark: listed apart in the source
# Experimental: as §1, §2
# [13] = as above; details: 1H NMR titration in D2O at 298 K; remark: listed apart in the source
# Experimental: as §1, §2
# [14] = as above; details: for Ka: 1H NMR titration in D2O at 298 K
# Experimental: as §1, §2
# [15] = as above; details: 1H NMR titration in D2O at 298 K; ~0 = too small for analysis; remark: listed apart in the source
# Experimental: as §1, §2
# [16] = as above; details: 1H NMR titration in D2O at 298 K; remark: listed apart in the source
# Experimental: as §1, §2
# [17] = Solubility and aggregation in water/D2O (NMR dilution studies); format: physicochemical
# Experimental: The compound was dissolved in D2O at concentrations up to ˜4 mM giving clean, if slightly broadened, ^1H NMR spectra. Minor signal movements were observed on dilution to ˜1 mM but no further effect was observed below this concentration, implying that the system is monomeric at 1 mM or less.
# [18] = 1H NMR titration, binding to carbohydrate substrate; details: 1H NMR titration in D2O at 298 K; ~0 = too small for analysis; remark: listed apart in the source
# Experimental: as §1, §2
# [19] = Photobleaching under continuous UV irradiation in a fluorescence spectrometer; format: physicochemical; details: in 5 hours
# Experimental: Under continuous UV irradiation in a fluorescence spectrometer, emission decayed by <10% in 5 hours. In a practical glucose monitoring device this would translate to a long lifetime as the receptor compound would be subjected only to short pulses of light every few seconds.
# [20] = 1H NMR titration, binding to carbohydrate substrate; details: 1H NMR titration in D2O at 298 K; ~0 = too small for analysis; remark: listed apart in the source
# Experimental: as §1, §2
# [21] = as above; details: 1H NMR titration in D2O at 298 K; remark: listed apart in the source
# Experimental: as §1, §2
# [22] = as above; details: 1H NMR titration in D2O at 298 K; remark: listed apart in the source
# Experimental: as §1, §2
# [23] = 1H NMR titration, summary for non-target monosaccharides; format: binding; details: all non-target monosaccharides aside from methyl α-D-glucoside
# Experimental: as §1, §2
# [24] = 1H NMR titration, binding to carbohydrate substrate; details: 1H NMR titration in D2O at 298 K; remark: listed apart in the source
# Experimental: as §1, §2
# [25] = Isothermal titration calorimetry (ITC); format: binding
# Experimental: as §3
# [26] = 1H NMR titration, binding to carbohydrate substrate; details: 1H NMR titration in D2O at 298 K; remark: listed apart in the source
# Experimental: as §1, §2
# [27] = as above; details: 1H NMR titration in D2O at 298 K; remark: listed apart in the source
# Experimental: as §1, §2
# [28] = as above; details: 1H NMR titration in D2O at 298 K; ~0 = too small for analysis; remark: listed apart in the source
# Experimental: as §1, §2
# [29] = 1H NMR titration, 1.1 mM receptor, glucose 0 to 200 mM, 298 K
# [30] = 0.125 mM to 2 mM in D2O at 298 K
compound,measurement,setting,value
O=C(O)CCOCC(COCCC(=O)O)(COCCC(=O)O)NC(=O)c1cc2cc(c1)C(=O)NCc1c3ccccc3c(c3ccccc13)CNC(=O)c1cc(cc(C(=O)NC(COCCC(=O)O)(COCCC(=O)O)COCCC(=O)O)c1)C(=O)NCc1c3ccccc3c(c3ccccc13)CNC2=O [Compound 3],Ka,[1],6 M⁻¹
same,Ka,[2],~0 M⁻¹
same,Ka,[3],~0 M⁻¹
same,Ka,[4],101 M⁻¹
same,Ka,[5],96 M⁻¹
same,quantum yield,"[6]; 20 μm aqueous solution, excitation 394 nm",2.4%
same,emission peak,[6]; excitation with UV light at 394 nm,423 nm
same,Ka,Fluorescence titration; binding data at 423 nm,58 M⁻¹
same,Ka,Fluorescence titration; with D -lactose,9 M⁻¹
same,Ka,Fluorescence titration; with methyl β-D-glucoside 10,121 M⁻¹
same,increase of emission intensity on addition of glucose (factor),"Fluorescence titration; receptor 18.8 μM, excitation 394 nm",up to 2.5
same,Ka,[7],16 M⁻¹
same,Ka,"[8]; 1H NMR titration in D2O at 298 K, ~0 = too small for analysis",~0 M⁻¹
same,response when added to receptor,[8]; mannitol,Neither produced any response
same,Ka,[9],~0 M⁻¹
same,Ka,[10],24 M⁻¹
same,Ka,[11],1 M⁻¹
same,Ka,[12],9 M⁻¹
same,Ka,[13],35 M⁻¹
same,Ka,[14],56 M⁻¹
same,Ka,[14]; ~0 = too small for analysis,~0 M⁻¹
same,association constant Ka from movement of proton E,[14]; [29],58 M⁻¹
same,association constant Ka from movement of proton F,[14]; [29],54 M⁻¹
same,receptor occupancy,"[14]; 310 K, across the physiological range of 2-10 mM glucose",6-25%
same,response when added to receptor,[14]; lactate,Neither produced any response
same,affinity measured by NMR titration,[14]; physiological temperature (310 K),33 M⁻¹
same,Ka,[15],~0 M⁻¹
same,Ka,[16],10 M⁻¹
same,concentration at which system is monomeric,"[17]; D2O, NMR dilution",≤ 1000 µM
same,concentration dissolved in D2O,[17]; giving clean 1H NMR spectra,~4000 µM
same,Ka,[18],~0 M⁻¹
same,emission decay (photobleaching),[19],< 10%
same,Ka,[20],~0 M⁻¹
same,Ka,[21],87 M⁻¹
same,Ka,[22],36 M⁻¹
same,Ka,[23],≤ 1 m^−1
same,Ka,[24],1 M⁻¹
same,Ka,[25]; ITC titration in water at 298 K,55 M⁻¹
same,TΔS of binding,"[25]; ITC, 298 K, water",-5.86 kJ/mol
same,ΔH of binding,"[25]; ITC, 298 K, water",-15.9 kJ/mol
same,Ka,[26],28 M⁻¹
same,Ka,[27],1 M⁻¹
same,Ka,[28],~0 M⁻¹
O=C([O-])CCOCC(COCCC(=O)[O-])(COCCC(=O)[O-])NC(=O)c1cc2cc(c1)C(=O)NCc1c3ccccc3c(c3ccccc13)CNC(=O)c1cc(cc(C(=O)NC(COCCC(=O)[O-])(COCCC(=O)[O-])COCCC(=O)[O-])c1)C(=O)NCc1ccc(cc1)CNC2=O.[Na+].[Na+].[Na+].[Na+].[Na+].[Na+] [Compound 9],Ka,[12],too small to measure
same,Ka,[14],too small to measure
O=C([O-])CCC(CCC(=O)[O-])(CCC(=O)[O-])NC(=O)CCC(CCC(=O)NC(CCC(=O)[O-])(CCC(=O)[O-])CCC(=O)[O-])(CCC(=O)NC(CCC(=O)[O-])(CCC(=O)[O-])CCC(=O)[O-])NC(=O)c1cc2cc(c1)C(=O)NCc1c3ccccc3c(c3ccccc13)CNC(=O)c1cc(cc(C(=O)NC(CCC(=O)NC(CCC(=O)[O-])(CCC(=O)[O-])CCC(=O)[O-])(CCC(=O)NC(CCC(=O)[O-])(CCC(=O)[O-])CCC(=O)[O-])CCC(=O)NC(CCC(=O)[O-])(CCC(=O)[O-])CCC(=O)[O-])c1)C(=O)NCc1c3ccccc3c(c3ccccc13)CNC2=O.[Na+].[Na+].[Na+].[Na+].[Na+].[Na+].[Na+].[Na+].[Na+].[Na+].[Na+].[Na+].[Na+].[Na+].[Na+].[Na+].[Na+].[Na+] [Compound 13],increase in fluorescence emission upon binding with D-glucose,"Fluorescence titration; em 423 nm, ex 395 nm, 18.8 μM, phosphate buffer pH 7.1",approximately three-fold
same,Ka,Fluorescence titration; binding data at 423 nm,87 M⁻¹
same,Ka,[14],89 M⁻¹
same,aggregation during NMR dilution studies,[17]; [30],no indication of aggregation
same,solubility in water,[17]; [30],good solubility in water
